In ChEMBL document CHEMBL3137667, “[Drug-induced liver injury; fourteenth updated edition of the bibliographic database of liver injuries and related drugs]” (Gastroenterol Clin Biol, 2004):

Assays:
[1] = human, serum, 4383 h
[2] = Highest frequency of acute liver toxicity observed during clinical trials, expressed as a percentage. [column '% AIGUE' in source]; conditions: human
[3] = human
[4] = human; remark: listed apart in the source
[5] = Presence of at least one case with successful reintroduction. [column 'REINT' in source]; conditions: human
[6] = Times to onset, minimal and maximal, observed in the indexed observations. [column 'DELAI' in source]; conditions: human
[7] = human; remark: listed apart in the source
[8] = human, serum
[9] = human; remark: listed apart in the source
[10] = human; remark: listed apart in the source
[11] = human; remark: listed apart in the source
[12] = human; remark: listed apart in the source
[13] = human; remark: listed apart in the source
[14] = Highest frequency of moderate liver toxicity observed during clinical trials, expressed as a percentage. [column '% BIOL' in source]; conditions: human
[15] = human, serum; remark: listed apart in the source
[16] = human; remark: listed apart in the source
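Throughout, for Hepatotoxicity (association with vascular disease): count of indexed literature references reporting vascular liver injury in humans, e.g. peliosis hepatitis, hepatic veno-occlusive disease or Budd-Chiari syndrome.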
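Throughout, for Hepatotoxicity (benign tumour): value is a count of indexed literature references citing a benign tumour confirmed by histopathology.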
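Throughout, for Hepatotoxicity (choleostasis): human cholestatic liver injury, shown by histopathology or by peak ALT or AST elevation over alkaline phosphatase ratio below 2, value counts indexed literature reports.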
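Throughout, for Hepatotoxicity (chronic liver disease): chronic liver injury confirmed by histopathology or persistently raised serum aminotransferase activity beyond 6 months, value given as the count of indexed literature references.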
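Throughout, for Hepatotoxicity (cirrhosis): value is a count of indexed literature references reporting cirrhosis confirmed by histopathology.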
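Throughout, for Hepatotoxicity (cytolytic): human cytolytic liver injury, shown by histopathology or by a ratio above 5 of peak ALT or AST elevation to alkaline phosphatase elevation, value counts indexed references.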
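Throughout, for Hepatotoxicity (granulomatous hepatitis): value is a count of indexed literature references reporting granulomatous liver disease confirmed by histopathology.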
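Throughout, for Hepatotoxicity (malignant tumour): malignant tumour confirmed by histopathology, value gives the count of indexed literature references reporting it.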
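Throughout, for Hepatotoxicity (severe hepatitis): human clinical data: severe hepatitis, meaning potentially life-threatening liver failure or clinically observed cases, the value counts how many indexed literature references report it.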
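Throughout, for Hepatotoxicity (steatosis): steatosis confirmed by histopathology, value is the count of indexed references.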

| SMILES | Hepatotoxicity (chronic liver disease) [1] | Hepatotoxicity (acute) [2] | Hepatotoxicity (severe hepatitis) [3] | Hepatotoxicity (malignant tumour) [4] | Hepatotoxicity (successful reintroduction) [5] | Hepatotoxicity (time to onset) [6] | Hepatotoxicity (granulomatous hepatitis) [7] | Hepatotoxicity (moderate) [8] | Hepatotoxicity (benign tumour) [9] | Hepatotoxicity (steatosis) [10] | Hepatotoxicity (choleostasis) [11] | Hepatotoxicity (cytolytic) [12] | Hepatotoxicity (cirrhosis) [13] | Hepatotoxicity (moderate) [14] | Hepatotoxicity (acute) [15] | Hepatotoxicity (association with vascular disease) [16] | also measured |
| --- | --- | --- | --- | --- | --- | --- | --- | --- | --- | --- | --- | --- | --- | --- | --- | --- | --- |
| NS(=O)(=O)c1cc2c(cc1Cl)NCNS2(=O)=O [HYDROCHLOROTHIAZIDE] | 0 | 0% | 1 | 0 | yes | 17 days - 14 months | 0 | 2 | 0 | 0 | 1 | 3 | 0 | 2.4% | 4 | 0 | – |
| Nc1cc(-c2ccncc2)c[nH]c1=O [INAMRINONE] | 0 | 0% | 0 | 0 | yes | 1 week - 3 weeks | 0 | 9 | 0 | 0 | 2 | 2 | 0 | 33% | 6 | 0 | – |
| CN(C)CCCn1c2c(c3ccccc31)CCCCCC2 [IPRINDOLE] | 0 | – | – | 0 | yes | 2 weeks - 1 month | – | 1 | 0 | 0 | – | – | 0 | – | 6 | 0 | Hepatotoxicity (acute) ([2]; Liver): 0%; Hepatotoxicity (severe hepatitis) ([3]; Liver): 0; Hepatotoxicity (granulomatous hepatitis) ([7]; Liver): 0; Hepatotoxicity (choleostasis) ([11]; Liver): 6; Hepatotoxicity (cytolytic) ([12]; Liver): 1; Hepatotoxicity (moderate) ([14]; Liver): 0% |
| COc1c2occc2c(OC)c2c(=O)cc(C)oc12 [KHELLIN] | 0 | 0% | 0 | 0 | yes | 5 weeks | 0 | 1 | 0 | 0 | 0 | 1 | 0 | 0% | 1 | 0 | – |
| Cc1c(OCC(F)(F)F)ccnc1C[S+]([O-])c1nc2ccccc2[nH]1 (centres undefined) [LANSOPRAZOLE] | 0 | 0% | 1 | 0 | yes | 13 days - 5 weeks | 0 | 7 | 0 | 0 | 1 | 3 | 0 | 10.5% | 4 | 0 | – |
| [Li] [LITHIUM] | 1 | 0% | 0 | 0 | yes | 2 days - 2 months | 0 | 4 | 0 | 0 | 0 | 0 | 0 | 0% | 0 | 0 | – |
| CN(CCCN1c2ccccc2CCc2ccccc21)CC(=O)c1ccc(Cl)cc1 [LOFEPRAMINE] | 0 | 2.3% | 1 | 0 | yes | 1 week - 12 weeks | 0 | 7 | 0 | 0 | 3 | 2 | 0 | 46.5% | 3 | 0 | – |
| N[C@@H](C(=O)N[C@@H]1C(=O)N2C(C(=O)O)=C(Cl)CC[C@H]12)c1ccccc1 [LORACARBEF ANHYDROUS] | 0 | 0% | 0 | 0 | yes | 1 week - 6 weeks | 0 | 19 | 0 | 0 | 1 | 1 | 0 | 15% | 1 | 0 | – |
| CCCCc1nc(Cl)c(CO)n1Cc1ccc(-c2ccccc2-c2nn[nH]n2)cc1 [LOSARTAN] | 1 | 0% | 1 | 0 | yes | 2 weeks - 5 months | 0 | 11 | 0 | 0 | 0 | 4 | 0 | 20% | 5 | 0 | – |
| CCC1(c2ccccc2)C(=O)NC(=O)N(C)C1=O (centres undefined) [MEPHOBARBITAL] | 0 | 0% | 0 | 0 | yes | 3 months | 0 | 0 | 0 | 0 | 0 | 1 | 0 | 0% | 1 | 0 | – |
| CN(C)C(=N)N=C(N)N [METFORMIN] | 0 | – | – | 0 | yes | 1 week - 17 months | – | 1 | 0 | 0 | – | – | 0 | – | 10 | 0 | Hepatotoxicity (acute) ([2]; Liver): 0%; Hepatotoxicity (severe hepatitis) ([3]; Liver): 0; Hepatotoxicity (granulomatous hepatitis) ([7]; Liver): 0; Hepatotoxicity (choleostasis) ([11]; Liver): 6; Hepatotoxicity (cytolytic) ([12]; Liver): 3; Hepatotoxicity (moderate) ([14]; Liver): 0% |
| CC(=O)O[C@H]1CC[C@H]2[C@@H]3CC[C@H]4CC(=O)C=C(C)[C@]4(C)[C@H]3CC[C@]12C [METHENOLONE ACETATE] | 0 | 0% | 0 | 1 | yes | 1 month - 15 years | 0 | 1 | 1 | 0 | 0 | 0 | 0 | 0% | 5 | 0 | – |
| COC(=O)C(c1ccccc1)C1CCCCN1 (centres undefined) [METHYLPHENIDATE] | 0 | 0% | 2 | 0 | yes | 2 days - 2 months | 0 | 1 | 0 | 0 | 0 | 3 | 0 | 0% | 4 | 0 | – |
| C[C@H]1C[C@@H]2[C@H]([C@@H](O)C[C@@]3(C)[C@H]2CC[C@]3(O)C(=O)CO)[C@@]2(C)C=CC(=O)C=C12 [METHYLPREDNISOLONE] | 0 | 0% | 0 | 0 | yes | 40 days | 0 | 0 | 0 | 2 | 0 | 2 | 0 | 0% | 2 | 0 | – |
